Laboratory results from the NIST ThermoML archive (doi:10.1016/j.jct.2015.06.010).

Details: 101.33 kPa, Liquid; for electrical conductivity: Alternating current cell with electrodes; for viscosity: Concentric cylinders viscometry; for mass density: Vibrating tube method

Cn1cc[n+](CCO)c1.O=S(=O)([N-]S(=O)(=O)C(F)(F)F)C(F)(F)F
Details	electrical conductivity [S/m]	mass density [kg/m3]	viscosity [mPa·s]
283.15 K	0.132	1588.6	213.4
288.15 K	0.179	1583.6	153.7
293.15 K	0.237	1578.6	114.1
298.15 K	0.305	1573.7	86.89
303.15 K	0.387	1568.8	67.66
308.15 K	0.481	1563.9	53.88
313.15 K	0.589	1559.1	43.52
318.15 K	0.704	1554.2	35.85
323.15 K	0.83	1549.4	29.83
328.15 K	0.967	1544.6	25.2
333.15 K	1.11	1539.8	21.52
338.15 K	1.28	1535	18.46
343.15 K	1.45	1530.2	16.08
348.15 K	1.63	1525.5	14.06
353.15 K	1.81	1520.7	12.44

Cn1cc[n+](CC#N)c1.O=S(=O)([N-]S(=O)(=O)C(F)(F)F)C(F)(F)F
Details	electrical conductivity [S/m]	mass density [kg/m3]	viscosity [mPa·s]
283.15 K	0.0283	1625.9	1140
288.15 K	0.0439	1620.5	708.6
293.15 K	0.0648	1615	463.4
298.15 K	0.0919	1609.7	315.5
303.15 K	0.129	1604.6	222.8
308.15 K	0.173	1599.6	162.4
313.15 K	0.225	1594.6	121.7
318.15 K	0.285	1589.8	93.56
323.15 K	0.36	1584.8	73.61
328.15 K	0.441	1579.9	58.99
333.15 K	0.536	1575.1	47.93
338.15 K	0.644	1570.2	39.7
343.15 K	0.756	1565.4	33.27
348.15 K	0.878	1560.6	28.11
353.15 K	1.01	1555.8	24.06
